Assay results published in patent US8431523B2, “Oligomeric biosurfactants in dermatocosmetic compositions” (priority 2006, dated 2013).
Non-standard residues stand in square brackets, D forms with d. Residues, ends and D or L forms follow the SMILES beside them. *: point of attachment. Myristoyl = CCCCCCCCCCCCCC(=O)*

Legend:
fibroblast proliferation = assay: Cyquant Cell Proliferation Assay; assay type: cell-based
Description: For purposes of the present invention, proliferation is assessed using the Cyquant® Cell Proliferation Assay from Molecular Probes. This assay measures increased production of cellular nucleic acids that, in turn, results in increased binding of fluorescent dye.

P. cepacia = assay: Minimum inhibitory concentration, P. cepacia; assay type: cell-based, Pseudomonas cepacia
Source text: By “antimicrobial” activity is meant the ability to inhibit the growth of at least one microbial organism selected from the group consisting E. coli, P. aeruginosa, S. aureus and C. albicans, as confirmed by optical density measurement (“OD”). By “inhibition of growth” is meant reduction or absence of an increase greater than 5% in OD, a dimensionless measure of turbidity that is proportional to the amount of microbial cells present in a sample. For illustrative purposes, a OAB according to the present invention is added to a culture plate on which E. coli is present at a final concentration of about 5×10^3 cfu/ml. The plate is then incubated at about 37° C. for about 24 hours at which time the E. coli is resuspended by shaking, and OD is measured at about 600 nm. Thus, a reduction or absence of an increase greater than 5% in OD confirms the antimicrobial nature of the OAB with respect to E. coli. Minimum inhibitory concentration (“MIC”) is a method well-known to those of skill in the art for expressing antimicrobial activity. A compound to be tested is serially diluted into growth medium, inoculated with culture and then incubated. The MIC is the lowest dilution of compound that inhibits or prevents growth of the target microorganism.

Row | Structure (SMILES) | MIC(P. cepacia) (P. cepacia) [ppm] | increase fibroblast proliferation (qualitative) (fibroblast proliferation)
1 | CCCCCCCCCCCCCC(=O)N[C@@H](C)C(=O)N[C@@H](Cc1c[nH]cn1)C(=O)N[C@@H](CCCNC(=N)N)C(N)=O [P322, Myr-AHR-amide] (Myristoyl-Ala-His-Arg-NH2) | ≤ 100 | increase fibroblast proliferation
2 | CCCCCCCCCCCCCC(=O)N[C@@H](CCCNC(=N)N)C(=O)N[C@@H](CCCNC(=N)N)C(=O)N[C@@H](CCCNC(=N)N)C(N)=O [P342, Myr-RRR-amide] (Myristoyl-Arg-Arg-Arg-NH2) | ≤ 100 | increase fibroblast proliferation
3 | CCCCCCCCCCCCCC(=O)N[C@@H](CCCCN)C(=O)N[C@@H](CCCCN)C(=O)N[C@@H](CCCCN)C(=O)O [P348, Myr-KKK-acid] | ≤ 100 | increase fibroblast proliferation
4 | CCCCCCCCCCCCCC(=O)N[C@@H](CCCCN)C(=O)N[C@@H](CCCCN)C(=O)N[C@@H](C)C(=O)N[C@@H](CC(C)C)C(=O)N[C@@H](CCCCN)C(=O)O [P349, Myr-KKALK-acid] (Myristoyl-KKALK-OH) | ≤ 100 | increase fibroblast proliferation
5 | CCCCCCCCCCCCCC(=O)N[C@@H](CCCCN)C(=O)N[C@@H](CC(C)C)C(=O)N[C@@H](C)C(=O)N[C@@H](CCCCN)C(=O)N[C@@H](CCCCN)C(=O)O [P351, Myr-KLAKK-acid] (Myristoyl-KLAKK-OH) | ≤ 100 | increase fibroblast proliferation
6 | CCCCCCCCCCCCCC(=O)N[C@@H](CCCCN)C(=O)N[C@@H](CCCCN)C(=O)N[C@@H](C)C(=O)N[C@@H](CC(C)C)C(=O)O [P362, Myr-KKAL-acid] (Myristoyl-KKAL-OH) | ≤ 100 | increase fibroblast proliferation
7 | CCCCCCCCCCCCCC(=O)N[C@@H](CC(C)C)C(=O)N[C@@H](C)C(=O)N[C@@H](CCCCN)C(=O)N[C@@H](CCCCN)C(=O)O [P363, Myr-LAKK-acid] (Myristoyl-LAKK-OH) | ≤ 100 | increase fibroblast proliferation
8 | CCCCCCCCCCCCCC(=O)N[C@H](C(=O)N[C@@H](C)C(=O)N[C@@H](CCCCN)C(=O)N[C@@H](CCCCN)C(N)=O)[C@@H](C)CC [P371, Myr-IAKK-amide] (Myristoyl-IAKK-NH2) | ≤ 100 | increase fibroblast proliferation
9 | CCCCCCCCCCCCCC(=O)N[C@@H](CC(C)C)C(=O)N[C@@H](CO)C(=O)N[C@@H](CCCCN)C(=O)N[C@@H](CCCCN)C(N)=O [P372, Myr-LSKK-amide] (Myristoyl-LSKK-NH2) | ≤ 100 | increase fibroblast proliferation

The next lines start with results.

Row | MIC(P. cepacia) (P. cepacia) [ppm] | Structure (SMILES) | increase fibroblast proliferation (qualitative) (fibroblast proliferation)
10 | ≤ 100 | CCCCCCCCCCCCCC(=O)N[C@@H](CCCCN)C(=O)N[C@@H](CCCCN)C(=O)NCC(=O)N[C@@H](CC(C)C)C(=O)N[C@@H](CCCCN)C(N)=O [P374, Myr-KKGLK-amide] (Myristoyl-KKGLK-NH2) | increase fibroblast proliferation
11 | ≤ 100 | CCCCCCCCCCCCCC(=O)N[C@@H](CCCCN)C(=O)N[C@@H](CCCCN)C(=O)NCC(=O)N[C@H](C(=O)N[C@H](CCCCN)C(N)=O)[C@@H](C)CC [P390, Myr-KKG1-[K]^D-amide] (Myristoyl-KKGI[dK]-NH2) | increase fibroblast proliferation
12 | ≤ 100 | CCCCCCCCCCCCCC(=O)N[C@@H](CCCCN)C(=O)N[C@@H](CCCCN)C(=O)NCC(=O)N[C@@H](CC(C)C)C(=O)N[C@H](CCCCN)C(N)=O [P394, Myr-KKGL-[K]^D-amide] (Myristoyl-KKGL[dK]-NH2) | increase fibroblast proliferation
13 | ≤ 100 | CCCCCCCCCCCCCC(=O)N[C@@H](CCCCN)C(=O)N[C@@H](CCCCN)C(=O)N[C@@H](CO)C(=O)N[C@@H](CC(C)C)C(=O)N[C@H](CCCCN)C(N)=O [P395, Myr-KKSL-[K]^D-amide] (Myristoyl-KKSL[dK]-NH2) | increase fibroblast proliferation
14 | ≤ 100 | CCCCCCCCCCCCCC(=O)N[C@@H](CCCCN)C(=O)N[C@@H](CC(C)C)C(=O)N[C@@H](C)C(=O)N[C@@H](CCCCN)C(=O)N[C@@H](CCCCN)C(=O)N[C@H](CC(C)C)C(N)=O [P396, Myr-KLAKK-[L]^D-amide] (Myristoyl-KLAKK[dL]-NH2) | increase fibroblast proliferation
15 | ≤ 100 | CCCCCCCCCCCCCC(=O)NCC(=O)NCC(=O)N[C@@H](CCCCN)C(=O)N[C@@H](CCCNC(=N)N)C(N)=O [P399, Myr-GGKR-amide] (Myristoyl-GGKR-NH2) | increase fibroblast proliferation
16 | ≤ 100 | CCCCCCCCCCCCCC(=O)N[C@@H](C)C(=O)N[C@@H](C)C(=O)N[C@@H](CCCCN)C(=O)N[C@@H](CCCNC(=N)N)C(N)=O [P400, Myr-AAKR-amide] (Myristoyl-AAKR-NH2) | increase fibroblast proliferation
17 | ≤ 100 | CCCCCCCCCCCCCC(=O)N[C@@H](C)C(=O)N[C@@H](CCCCN)C(=O)N[C@@H](CCCCN)C(=O)NCC(=O)N[C@@H](CC(C)C)C(=O)N[C@H](CCCCN)C(N)=O [P402, Myr-AKKGL-[K]^D-amide] (Myristoyl-AKKGL[dK]-NH2) | increase fibroblast proliferation
18 | ≤ 100 | CCCCCCCCCCCCCC(=O)NCC(=O)N[C@@H](CCCCN)C(=O)N[C@@H](CCCCN)C(=O)N[C@@H](C)C(=O)N[C@@H](CC(C)C)C(=O)N[C@H](CCCCN)C(N)=O [P404, Myr-GKKAL-[K]^D-amide] (Myristoyl-GKKAL[dK]-NH2) | increase fibroblast proliferation
19 | ≤ 100 | CCCCCCCCCCCCCC(=O)N[C@@H](CO)C(=O)N[C@@H](CCCCN)C(=O)N[C@@H](CCCCN)C(=O)N[C@@H](C)C(=O)N[C@@H](CC(C)C)C(=O)N[C@H](CCCCN)C(N)=O [P408, Myr-SKKAL-[K]^D-amide] (Myristoyl-SKKAL[dK]-NH2) | increase fibroblast proliferation
